Assay results: patent US11492366B2, “Platinum compounds for binding guanine quadruplexes” (QUEEN'S UNIVERSITY AT KINGSTON, priority 2017, dated 2022)

How the values were obtained:
F21CTAT = test: FRET melting assay, F21CTAT; format: binding; conditions: DNA quadruplex; 0.2 μM binder, 0.1 μM oligonucleotide, K+ buffer; dichloride salts
Excerpt: (§1) All samples tested are guanine quadruplexes except FdxT, which is in duplex form. Binding of G4s by the specified binders of Formula (1) was shown.
(§2) 96-Well plate FRET melting assays were adapted from literature protocols (A. De Rache, J.-L. Mergny, Biochimie (2015),115: 194-202) and conducted using a Strategene Mx3005P real-time PCR apparatus. G4 oligonucleotides labelled with 5′-FAM (6-carboxyfluorescein) and 3′-TAMRA (6-carboxytetramethylrhodamine) fluorophores were folded by rapid annealing in buffer (2 min. at 90° C. followed by cooling in ice). The FAM fluorescent tag was excited at 492 nm and its emission followed at 516 nm while the plates were incubated at 25° C. (5 min.) and then heated (1° C./min) to 95° C. Each condition was repeated in duplicate, and every experiment was repeated at least three times for reproducibility. Final oligonucleotide concentration ([…]) and buffer conditions (10 mM lithium cacodylate, pH 7.2 with either 10 mM potassium chloride/90 mM lithium chloride or 100 mM sodium chloride for DNA, or with 1 mM potassium chloride and 99 mM lithium chloride for RNA) were kept constant. T1/2 values were obtained as the temperature at which the normalized fluorescence emission is 0.5, with ΔT1/2=T1/2 (G4+ binder) — T1/2 (G4). […]

F25cebT = test: FRET melting assay, F25cebT; format: binding; conditions: DNA quadruplex; 0.2 μM binder, 0.1 μM oligonucleotide, K+ buffer; dichloride salts
Excerpt: as §1, §2

F21T = test: FRET melting assay, F21T; format: binding; conditions: DNA quadruplex; 0.2 μM binder, 0.1 μM oligonucleotide, K+ buffer; dichloride salts
Excerpt: as §1, §2

FTBAT = test: FRET melting assay, FTBAT; format: binding; conditions: DNA quadruplex; 0.2 μM binder, 0.1 μM oligonucleotide, K+ buffer; dichloride salts
Excerpt: as §1, §2

F21RT = test: FRET melting assay, F21RT; format: binding; conditions: RNA quadruplex; 0.2 μM binder, 0.1 μM oligonucleotide, K+ buffer (1 mM KCl/99 mM LiCl for RNA); dichloride salts
Excerpt: as §1, §2

FdxT = test: FRET melting assay, FdxT duplex; format: binding; conditions: DNA duplex; 0.2 μM binder, 0.1 μM oligonucleotide, K+ buffer; dichloride salts
Excerpt: as §1, §2

Fc-mycT = test: FRET melting assay, Fc-mycT; format: binding; conditions: DNA quadruplex; 0.2 μM binder, 0.1 μM oligonucleotide, K+ buffer; dichloride salts
Excerpt: as §1, §2

FBom17T = test: FRET melting assay, FBom17T; format: binding; conditions: DNA quadruplex; 0.2 μM binder, 0.1 μM oligonucleotide, K+ buffer; dichloride salts
Excerpt: as §1, §2

22AG [1] = test: FID titration (thiazole orange displacement) and data fitting; format: binding, human; conditions: K buffer, error 3σ × standard deviation
Procedure: Specifically, such titrations involve the addition of a binder to a thiazole orange (TO):22AG complex (0.25 or 0.5 μM DNA) in potassium buffer (10 mM lithium cacodylate buffer (pH 7.2) and 100 mM KCl). FIG. 4A provides an example of the blank-, baseline-, and volume-corrected fluorescence spectra obtained from the titration of Pt(2)2 with TO-22AG. […] Previous experiments indicate that the fluorophore binds to the quadruplex in a 1:1 TO:22AG stoichiometry, thus potentially leaving a second binding site unoccupied on the other terminal guanine tetrad of 22AG. […]
FID assays were adapted from literature protocols (Monchaud et al., Biochimie (2008) 90: 1207-23). […] In order to derive binding constants from FID data, fluorescence titrations monitoring the binding of TO to the quadruplex examined were first performed in triplicate. A TO-G4 binding constant was determined by data fitting using the HypSpec2014 software (see below). […]
Experiments were performed in a 1.5 mL cell at 25° C. […] Following a 3 minute equilibrium period after each addition, the fluorescence emission spectrum was recorded (λex=501 nm, λem=510-750 nm, bandwidth 5 nm, step size 1 nm). […]
A blank sample containing only buffer was measured in a 1.5 mL fluorescence cuvette to serve as reference. […]

guanine quadruplexes = test: FRET melting assays, overall statements; format: binding; conditions: 0.2 μM binder
Excerpt: as §1, §2

22AG [2] = test: Circular dichroism titration, 22AG; format: binding, human; conditions: for Binder-induced conformational change of 22AG from hybrid to antiparallel (CD): K+ buffer (100 mM KCl), 0-5 equivalents binder
Procedure: Referring to FIGS. 3A and 3B, representative CD spectra from titrations where binders are added to A) 22AG and B) c-myc in potassium buffer (10 mM lithium cacodylate buffer (pH 7.2) and 100 mM KCl) are provided. Specifically, these graphs show changes in Δ A upon addition of Pt(11)2 (0-5 equivalents). Such experiments were performed for all novel binders of Formula (1) described in Table 1 with the exception of Pt(6)2.
The latter phenomenon is of particular interest in the case of the polymorphic quadruplex 22AG, which can adopt parallel, hybrid, and/or antiparallel topologies. […] The interactions of all novel binders of Formula (1) except Pt(6)2 (see Table 1) with 22AG and c-myc have been confirmed through similar CD titrations. In FIG. 3A, spectral changes such as the appearance of a peak at […] are consistent with a conformational change from a hybrid to an antiparallel 22AG quadruplex (Randazzo et al, Top. Curr. Chem. (2013) 330: 67-86).
500 μL Aliquots of 22AG and c-myc were folded at 3 μM by rapid annealing (2 min. at 90° C. followed by cooling in ice) in 10 mM lithium cacodylate (pH 7.2) and 100 mM potassium chloride. G4 binders were prepared in the same buffer at 37.5 or 75 μM, such that 0.5 equiv. binder was equivalent to 10 or 20 μL additions. Spectra at 0, 0.5, 1.0, 1.5, 2.0, 3.0, and 5.0 equivalents of binder added to G4 were acquired after 15 minutes of equilibration. Each spectrum was collected using a Jasco J-815 spectrometer with the following experimental parameters: wavelength range: 200-500 nm, data pitch: 1 nm, D.I.T.: 0.5 s, scan speed: 100 nm/min, accumulations: 3. Acquired data was then blank-corrected and baseline-corrected. Curves were smoothed by taking the average of the ellipticity data from the preceding 4 wavelengths as well as the current wavelength.

SMILES	Average Binder-Induced Stabilization of Melting Temperature (ΔT1/2), F21CTAT (F21CTAT)	Average Binder-Induced Stabilization of Melting Temperature (ΔT1/2), F25cebT (F25cebT)	Average Binder-Induced Stabilization of Melting Temperature (ΔT1/2), F21T (F21T)	Average Binder-Induced Stabilization of Melting Temperature (ΔT1/2), FTBAT (FTBAT)	Average Binder-Induced Stabilization of Melting Temperature (ΔT1/2), F21RT (F21RT)	Average Binder-Induced Stabilization of Melting Temperature (ΔT1/2), FdxT (FdxT)	Average Binder-Induced Stabilization of Melting Temperature (ΔT1/2), Fc-mycT (Fc-mycT)	Average Binder-Induced Stabilization of Melting Temperature (ΔT1/2), FBom17T (FBom17T)	Average Log(β), 2:1 binder:G4 complex (22AG [1])	Stabilization / binding of guanine quadruplexes (in words) (guanine quadruplexes)	Binder-induced conformational change of 22AG from hybrid to antiparallel (CD) (22AG [2])	Preferentially bound topology of human telomeric 22AG (22AG [2]; in potassium)
C[n+]1cc(NC(=O)c2ccc3ccc4ccc(C(=O)Nc5cc6ccccc6[n+](C)c5)nc4c3n2)cc2ccccc21 [Phen-DC3, reference compound]	11.7 °C	>8.5 °C	16.4 °C	6.4 °C	13.3 °C	0.6 °C	11.3 °C	3.2 °C	16.0 ± 1.3 M^−2			
C#Cc1ccc2[n+](c1)[Pt-2]1([n+]3cc(C#C)ccc3-c3n4ccccc4n[n+]31)[n+]1nc3ccccn3c1-2 [Pt(6)2]	1.9 °C	0.9 °C	0.9 °C	1.8 °C	4.5 °C	0.4 °C	0.2 °C	0.7 °C		binding was minimal		
CC(C)(C)OC(=O)Nc1ccc2n[n+]3c(n2c1)-c1cccc[n+]1[Pt-2]31[n+]2ccccc2-c2n3cc(NC(=O)OC(C)(C)C)ccc3n[n+]21 [Pt(17)2]											no conformational changes are observed	preferentially bind to a hybrid topology
CC(=O)NCC(=O)Nc1ccc2n[n+]3c(n2c1)-c1cccc[n+]1[Pt-2]31[n+]2ccccc2-c2n3cc(NC(=O)CNC(C)=O)ccc3n[n+]21 [Pt(18)2]											to a lesser extent	
CC(=O)NCC(=O)NCC(=O)Nc1ccc2n[n+]3c(n2c1)-c1cccc[n+]1[Pt-2]31[n+]2ccccc2-c2n3cc(NC(=O)CNC(=O)CNC(C)=O)ccc3n[n+]21 [Pt(19)2]											to a lesser extent	
